The values below come from patent US9645147B2, “Recombinant polypeptide construct comprising Plasmodium falciparum circumsporozoite protein HLA class I restricted T-cell epitopes” (priority 2013, dated 2017).

SMILES strings stand for the structures. Peptide text beside a SMILES is read from it.

Common to all, as to format: cell-based, human
In assay [1] the test system is PBMC from volunteers immunized with Ad-CA or Ad-C. Kind of assay: IFN-γ ELISpot assay with cryopreserved PBMC of immunized volunteers. Conditions: volunteers; positive = p<0.05, at least doubling and at least ten sfc over negative control. The protocol: Previous studies have confirmed that recall-T cell responses, as assayed by ELISpot, are detected using cryopreserved PBMCs although such responses are generally of a lower magnitude than fresh cells (Sedegah, et al., Malar J., 9: 241 (2011)).
The positive control was commercially obtained Class I Peptide Pool Plus (Anaspec, USA). Negative control was media with all supplements but no antigen-specific stimulant.
Throughout the studies, IFN-γ ELISpot assays were conducted as previously described (Sedegah, et al., Malar J., 9: 241 (2011); Wang, et al., PNAS (USA), 98: 10817-22 (2001)). Cryopreserved PBMC were suspended in 100 μL complete medium and stimulated with CSP peptides in 100 μL of complete medium at a final concentration of 10 μg/mL of each peptide tested (Wang, et al., PNAS (USA), 98: 10817-22 (2001)).
Cultures were incubated for 36 hours at 37° C., 5% CO2. Depending on availability of cells, each PBMC sample was assayed in duplicate, triplicate, or quadruplicate and the number of IFN-γ-secreting spot forming cells (sfc) was counted using an automated ELISpot reader (AID, GmbH, Germany). In duplicate assays, all values were used in analysis. […] The mean number of sfcs obtained in negative control wells was subtracted from the value of each test well from the same sample. Negative counts generated by this background subtraction were converted to zero. The mean number of spots of the test sample was then calculated and expressed as spot forming cells/million (sfc/m). A positive response was defined as a significant difference (p=<0.05) between average of the number of spot forming cells (sfc) in test wells and the average of negative control wells (Student's two tailed t-test), and at least a doubling of sfc in test wells relative to negative control wells, and a difference of at least ten sfc between test and negative control wells (Sedegah, et al., PLoS One, 6: e24586 (2011)).

Assay [2] concerns PBMC depleted of T-cell subsets. Description: ELISpot IFN-γ after T-cell subset depletion (CD4+ or CD8+ Dynabeads, mock control). From the text:
For characterization of ELISpot IFN-γ-producing cells by T-cell subset depletions PBMC were depleted of T-cell subsets using anti-human CD4+ or anti-CD8+ coated Dynabeads M-450 (Dynal, Great Neck, N.Y.) following the manufacturer's instructions. Mock depletion was done with Dynabeads coated with sheep anti-mouse IgG. Flow cytometry confirmed that T-cell subset depletions were >99% in all experiments. Data are presented as the spot-forming cells/million (sfc/m) and percent decrease or increase in activity after depletion.
To further evaluate the predicted epitopes, ELISpot depletion assays were performed using PBMC from four volunteers stimulated with six predicted and tested epitopes. CD8+ T cell depletion reduced responses to Cp1 and Cp9 by 82%100%.

The subject of the next assay is CD8+ T cells. Description: Intracellular cytokine staining (ICS), IFN-γ, CD8+ population. The protocol: (§1) Intracellular cytokine staining (ICS) was performed as published previously (Stewart, et al, Infect. Immun., 75: 2283-90 (2007)). Cryopreserved PBMC were thawed, washed, and resuspended at 10×10^6 cells per mL in complete medium. Peptides were used at 10 μg/mL and costimulatory antibodies anti-CD28 and […] (BD Bioscience, San Jose, Calif.) were used at 1 μg/mL. Stimulants were added to cells and incubated at 37° C. with 5% CO2 for 2 hours. Cells were stained with anti-CD3, anti-CD4, anti-CD8, anti-IFN-γ, anti-TNFα, and anti-IL2 and the entire available sample was acquired on a BD LSRII using FACSDiVa (BD Bioscience) software. Data were analyzed using FlowJo Software (Treestar, Inc.). The gating strategy involved progressively measuring total cells; viable cells; lymphocytes; T cells; CD4+ or CD8+ populations; and finally a specific cell type expressing a specific cytokine. Results were transferred to Prism (GraphPad) for graphing and statistical analysis. Data for peptides were corrected for media responses. A positive response was greater than the medium controls+3 standard deviations (0.03%).

A further assay deals with CD4+ T cells. Description: Intracellular cytokine staining (ICS), IFN-γ, CD4+ population. The protocol:
as §1

Setting [3] is: ICS assays, volunteers of Table 6.

Turning to `CC(C)C[C@H](NC(=O)[C@H](C)NC(=O)[C@H](CCC(=O)O)NC(=O)[C@@H](NC(=O)[C@H](Cc1ccccc1)NC(=O)[C@H](CC(C)C)NC(=O)[C@@H](N)Cc1ccccc1)C(C)C)C(=O)N[C@@H](Cc1ccccc1)C(=O)N[C@@H](CCC(N)=O)C(=O)O` [Epitope E1a] (H-FLFVEALFQ-OH; N-terminus and C-terminus assumed), the “ELISpot response to synthesized epitope (in words)” value in assay [1] is reported as “demonstrated activity”. Also, the “confirmation as recalling CD8+ T cell responses” value in assay [2] (ELISpot depletion and ICS studies) is “confirmed as recalling CD8+ T cell responses”. The “CD4+ depl. sfc/m” value in assay [2] (V156, after CD4+ T cell depletion) came to 215 sfc/m. Also, the “CD4+ depl. (%) percent change in ELISpot activity” value in assay [2] (V156, after CD4+ T cell depletion vs control depletion) is −12%. For the same molecule, the “CD8+ depl. sfc/m” value in assay [2] (V156, after CD8+ T cell depletion) came to 91 sfc/m. Besides, in assay [2] (V156, after CD8+ T cell depletion vs control depletion), the “CD8+ depl. (%) percent change in ELISpot activity” value is recorded as −73%. In addition, the Control dept. sfc/m in assay [2] (V156, mock (control) depletion) amounted to 245 sfc/m. In addition, in the assay on CD8+ T cells (setting [3]), the “ICS CD8+ T cell recall responses (in words)” value is “positive”. For the same molecule, in the assay with CD8+ T cells (V156, ICS, positive >0.03%), the “CD8+ % (per cent of CD8+ T cells expressing IFN-γ)” value worked out at 0.34%. Further, the “ICS CD4+ T cell recall responses (in words)” value with CD4+ T cells (setting [3]) is “negative”. Moreover, the “CD4+ % (per cent of CD4+ T cells expressing IFN-γ)” value in the assay with CD4+ T cells (V156, ICS, positive >0.03%) worked out at 0.03%.
